Consider ten compounds from PubChem BioAssay (NCI).

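Exposure lasted 48 hours, with cells grown in 96-well plates and compounds tested at five concentrations. Abbreviation: GI50, concentration required for 50% inhibition of growth. TGI denotes the concentration required for complete inhibition of growth.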

What all share (test): growth of human tumour cells (NCI), 48 h
The test system of test [1] is BT-549 breast.
The test system of test [2] is CCRF-CEM leukemia.
The test system of test [3] is EKVX NSCLC.
Test [4] relates to KM12 colon.
In test [5] the test system is OVCAR-4 ovarian.
In test [6] the test system is PC-3 prostate.
Test [7] has as its system SNB-19 CNS.
The test system of test [8] is U251 CNS.
For test [9], the system named is UACC-257 melanoma.
Test [10] deals with RPMI-8226 leukemia.

As to `O=C(CI)Nc1ccc(Br)cc1`, the GI50 in test [1] was 1640 nM; in test [2], 1.75 µM; in [3], 2.25 µM; in test [4], 2.9 µM; in [5], 2.92 µM; in test [6], 2.43 µM. Moreover, the GI50 in test [7] is 15.1 µM; in test [8], 1830 nM; in test [9], 2.05 µM. In addition, the TGI is 3.14 µM in test [1]; above 100 µM in [2]; 5.85 µM in [3]; 10.7 µM in test [4]; 7.25 µM in test [5]; 6.22 µM in test [6]. The TGI came out at 33.5 µM in test [7], 3.87 µM in test [8] and 4.66 µM in [9].

Turning to `N#CC1=C(N)OC2=C(CCOc3c2ccc2ccccc32)C1c1ccc(Br)cc1` (stereo not drawn), the GI50 in test [1] is above 100000 nM; in test [2], 16.8 µM; in test [3] it was above 100 µM; in test [4], 14.6 µM; in [5], 27.1 µM; in test [6], 19.9 µM. The results for the GI50 in [10] and in test [7] were 13.5 µM and 77.7 µM, respectively. The TGI was above 100 µM in test [1]; 54.2 µM in [2]; above 100 µM in test [3]; 34.3 µM in test [4]; above 100 µM in test [5]; 53.6 µM in test [6]. Further, the TGI was 40.8 µM in [10] and above 100 µM in test [7].

Take `CSc1ccc(C(=O)/C=C/c2ccc(Cl)cc2Cl)cc1`: the GI50 in test [1] is 15700 nM; in [3], 20.2 µM; in test [4], 22.2 µM; in test [5], 21.8 µM; in test [6], 39.6 µM; in [10], 14.7 µM. For the same compound, the GI50 was 16900 nM in test [8] and 24 µM in [9]. Also, the TGI in test [1] was 33.1 µM; in [3], 78.8 µM; in [4], 51.8 µM; in [5], 77.2 µM; in test [6], above 100 µM; in test [10], 37.7 µM. Moreover, the results for the TGI in test [8] and in test [9] were 32 µM and 91.4 µM, respectively.

In the case of `O=C1C(Cl)=C(NCCCN(CCCNC2=C(Cl)C(=O)c3ccccc3C2=O)C2=C(Cl)C(=O)c3ccccc3C2=O)C(=O)c2ccccc21`, the GI50 was 2500 nM in [1]; 3.34 µM in [2]; 2.62 µM in test [3]; 3 µM in [4]; 1.49 µM in [5]; 2.15 µM in [6]. Besides, the GI50 in [10] is 3.8 µM; in test [7], 3.79 µM; in [8] it was 2660 nM. Further, the TGI in test [1] is 13.5 µM; in test [2], above 100 µM; in test [3], 13.9 µM; in test [4], 12.8 µM; in [5], 2.85 µM; in test [6], 16.7 µM. Further, the TGI was above 100 µM in [10], 18.9 µM in test [7] and 6.27 µM in test [8].

Turning to `CCOCCOCCOCCOCCOCCOCCOCCOCCOCCO` (tested in a mixture with another compound), the GI50 in test [1] was 1290 nM; in [2] it was 1.06 µM; in test [3] it was 1.26 µM; in [4], 1.2 µM; in test [5] it was 0.717 µM; in [6], 1.01 µM. Also, the GI50 in test [8] was 987 nM; in test [9], 0.739 µM. The TGI in test [1] is 4.75 µM; in test [2], above 32.5 µM; in test [3], 9.62 µM; in test [4], 4.67 µM; in test [5] it was 2.84 µM; in [6], 6.5 µM. In addition, the TGI in test [8] was found to be 4.47 µM; in test [9], 2.73 µM.

In the case of `O=C(Oc1c(Cl)cc(Cl)cc1Cl)c1ccccc1Nc1ccnc(C(F)(F)F)c1`, the GI50 was 2420 nM in test [1]; 3.31 µM in test [3]; 4.11 µM in [4]; 15 µM in test [6]; 7.07 µM in [7]; 3040 nM in test [8]. Also, the GI50 in test [9] is 12.2 µM. Also, the TGI is 6.98 µM in test [1]; 13 µM in test [3]; 32.5 µM in test [4]; above 100 µM in test [6]; above 100 µM in test [7]; 9.32 µM in [8]. The TGI in test [9] was found to be 57.3 µM.

On to `COc1ccc(C(O)c2ccccn2)cc1` (stereo not drawn), for which the TGI in test [1], in test [3], in [4], in test [5], in test [6] and in test [10] was above 100 µM each time. Besides, the TGI in test [7], in test [8] and in test [9] was above 100 µM throughout.

Take `CCC(c1ccccc1)c1cc(C(C)(C)C)cc(C(C)(C)C)c1O` (stereo not drawn): the TGI in [1] was determined as 33.4 µM; in test [3], 32.2 µM; in test [4], 32.3 µM; in test [5] it was 29.3 µM; in [6], 31.6 µM; in test [10] it was 28.5 µM. In addition, the TGI in [7] stood at 32.7 µM; in test [8], 31.5 µM; in test [9] it was 28.5 µM.

Turning to `C=CCSC(C)=O`, the TGI in test [1], in test [2], in [3], in test [4], in test [5] and in [6] was above 100 µM in each case. The TGI in test [10], in [7] and in [8] was above 100 µM in each case.

As for `CC1=C(C(=O)Nc2ccc(Cl)c(Cl)c2)C(c2cccc(Cl)c2)NC(=S)N1` (stereo not drawn), the GI50 in test [1] was 16400 nM; in test [2], 30.5 µM; in [3], 12.2 µM; in test [4] it was 11.6 µM; in [5] it was 13.4 µM; in test [6] it was 14.1 µM. Moreover, the GI50 in [10] is 23 µM; in test [7], 10.5 µM; in test [8] it was 10700 nM. The TGI is 38.6 µM in test [1]; above 50 µM in [2]; 28.8 µM in test [3]; 37.6 µM in test [4]; 42.5 µM in [5]; above 50 µM in test [6]. For the same compound, the TGI in test [10] is above 50 µM; in test [7] it was 24.9 µM; in test [8], 29.6 µM.
